Assay results: ChEMBL document CHEMBL4814040 (Bioorg Med Chem Lett, 2021)

Assays:
MAO-A = target: T1, MAO-A (Homo sapiens, UniProt P21397); test: Inhibition of MAO-A (unknown origin) at 10 uM relative to control
T1 sequence (P21397 whole entry): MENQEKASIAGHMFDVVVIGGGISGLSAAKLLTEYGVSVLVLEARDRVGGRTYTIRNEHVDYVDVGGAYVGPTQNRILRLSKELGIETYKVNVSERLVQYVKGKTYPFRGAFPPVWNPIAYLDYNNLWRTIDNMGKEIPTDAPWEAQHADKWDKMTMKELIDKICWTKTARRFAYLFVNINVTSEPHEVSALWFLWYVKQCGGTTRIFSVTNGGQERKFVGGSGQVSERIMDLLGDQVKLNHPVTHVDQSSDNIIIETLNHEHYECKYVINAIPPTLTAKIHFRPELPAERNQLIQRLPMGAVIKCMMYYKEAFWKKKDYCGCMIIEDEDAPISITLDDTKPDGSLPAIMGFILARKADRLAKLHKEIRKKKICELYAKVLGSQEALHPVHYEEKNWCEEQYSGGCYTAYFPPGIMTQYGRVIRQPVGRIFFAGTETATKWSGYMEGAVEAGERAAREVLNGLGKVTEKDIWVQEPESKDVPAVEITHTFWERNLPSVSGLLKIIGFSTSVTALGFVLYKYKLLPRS

MAO-B = target: T2, MAO-B (Homo sapiens, UniProt P27338); test: Inhibition of MAO-B (unknown origin) at 10 uM relative to control
T2 sequence (P27338 whole entry): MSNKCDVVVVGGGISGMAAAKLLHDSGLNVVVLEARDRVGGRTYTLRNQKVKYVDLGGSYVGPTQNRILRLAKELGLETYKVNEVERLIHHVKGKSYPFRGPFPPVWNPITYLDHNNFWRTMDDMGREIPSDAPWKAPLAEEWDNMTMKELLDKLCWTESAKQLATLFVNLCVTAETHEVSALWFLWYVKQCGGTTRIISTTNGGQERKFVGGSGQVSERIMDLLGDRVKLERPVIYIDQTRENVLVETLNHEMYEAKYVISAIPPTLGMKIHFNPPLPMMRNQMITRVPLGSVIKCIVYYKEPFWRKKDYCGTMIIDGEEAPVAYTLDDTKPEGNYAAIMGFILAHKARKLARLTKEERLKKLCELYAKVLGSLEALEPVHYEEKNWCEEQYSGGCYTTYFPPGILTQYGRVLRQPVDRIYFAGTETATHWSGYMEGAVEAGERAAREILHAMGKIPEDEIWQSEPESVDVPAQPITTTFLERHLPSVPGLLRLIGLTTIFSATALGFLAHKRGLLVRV

PC-3 = test: cells; details: Homo sapiens, PC-3, read-out: INH
Description: Antiproliferative activity against human PC-3 cells assessed as cell growth inhibition at 16 uM relative to control

MCF7 = test: cells; details: Homo sapiens, MCF7, read-out: INH
Description: Antiproliferative activity against human MCF7 cells assessed as cell growth inhibition at 16 uM relative to control

MGC-803 = test: cells; details: Homo sapiens, MGC-803, read-out: INH
Description: Antiproliferative activity against human MGC803 cells assessed as cell growth inhibition at 16 uM relative to control

SGC-7901 = test: cells; details: Homo sapiens, SGC-7901, read-out: INH
Description: Antiproliferative activity against human SGC7901 cells assessed as cell growth inhibition at 16 uM relative to control

Compound	inhibition at 10 µM (MAO-A) [%]	inhibition at 10 µM (MAO-B) [%]	inhibition at 16 µM (PC-3) [%]	inhibition at 16 µM (MCF7) [%]	inhibition at 16 µM (MGC-803) [%]	inhibition at 16 µM (SGC-7901) [%]
Fc1ccc([C@@H]2C[C@H]2NCc2cn(-c3cccc(C(F)(F)F)c3)nn2)cc1F	90	43	–	–	–	–
FC(F)(F)c1ccc(-n2cc(CN[C@@H]3C[C@H]3c3ccccc3)nn2)cc1	101	86	–	–	–	–
COc1ccc(-n2cc(CN[C@@H]3C[C@H]3c3ccccc3)nn2)cc1	99	55	–	–	–	–
Fc1ccc([C@@H]2C[C@H]2NCc2cn(-c3ccc(C(F)(F)F)cc3)nn2)cc1F	101	82	–	–	–	–
COc1cccc(-n2cc(CN[C@@H]3C[C@H]3c3ccc(F)c(F)c3)nn2)c1	102	65	–	–	–	–
COc1ccc(OC)c(-n2cc(CN[C@@H]3C[C@H]3c3ccc(F)c(F)c3)nn2)c1	89	48	21.8	33.6	24.5	27.7
COc1ccc(-n2cc(CN[C@@H]3C[C@H]3c3ccc(F)c(F)c3)nn2)cc1	100	64	25.2	37.3	16.3	42
FC(F)(F)c1cccc(-n2cc(CN[C@@H]3C[C@H]3c3ccccc3)nn2)c1	101	94	–	–	–	–
c1ccc([C@@H]2C[C@H]2NCc2cn(-c3ccccc3)nn2)cc1	102	76	–	–	–	–
FC(F)(F)c1cc(-n2cc(CN[C@@H]3C[C@H]3c3ccccc3)nn2)cc(C(F)(F)F)c1	92	88	–	–	–	–
COc1ccccc1-n1cc(CN[C@@H]2C[C@H]2c2ccc(F)c(F)c2)nn1	90	51	–	–	–	–
COc1ccc(OC)c(-n2cc(CN[C@@H]3C[C@H]3c3ccccc3)nn2)c1	97	58	–	–	–	–
COc1cc(OC)cc(-n2cc(CN[C@@H]3C[C@H]3c3ccc(F)c(F)c3)nn2)c1	93	42	–	–	–	–
COc1ccccc1-n1cc(CN[C@@H]2C[C@H]2c2ccccc2)nn1	91	44	–	–	–	–
COc1cccc(-n2cc(CN[C@@H]3C[C@H]3c3ccccc3)nn2)c1	93	54	–	–	–	–
Fc1ccc([C@@H]2C[C@H]2NCc2cn(-c3cc(C(F)(F)F)cc(C(F)(F)F)c3)nn2)cc1F	91	35	–	–	–	–
COc1cc(OC)cc(-n2cc(CN[C@@H]3C[C@H]3c3ccccc3)nn2)c1	101	67	–	–	–	–
